The results in this text go back to ChEMBL document CHEMBL1201862, “PubChem BioAssay data set” (2004).

Test systems include MOLT-4; SW-620; OVCAR-4; SR; HCC 2998; SK-MEL-28; KM12; UO-31; NCI-H23; LOX IMVI; MCF7; OVCAR-3; HOP-92; CCRF-CEM; Malme-3M; NCI-H460; ACHN; MDA-MB-435; SF-539; A498.
Common to all, as to experiment: inhibition of tumour cell growth, NCI panel, 48 h

Molecules are shown by their SMILES.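 Protocol summary: plate cells (96-well), add compound at 5 concentrations, incubate 48 h, interpolate endpoints linearly. Abbreviation: GI50, concentration required for 50% inhibition of growth.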 Active and inactive are the calls of the source. Cut-off read from the data, not from the text of the source: active = GI50 up to about 1.1 µM and inactive = higher.

Turning to `CC(CC=O)Nc1nn2c(=O)c3ccccc3nc2s1` (stereo not given), the GI50 in the experiment on MOLT-4, in the experiment with SW-620, in the experiment on OVCAR-4, with SR, in the experiment on HCC 2998 and in the experiment with SK-MEL-28 was > 100 µM (inactive) throughout. In addition, the GI50 in the experiment on KM12 was > 100 µM (inactive); with UO-31 it was 18.2 µM (inactive); with NCI-H23 it was > 100 µM (inactive); with LOX IMVI, > 100 µM (inactive); with MCF7 it was > 100 µM (inactive); with OVCAR-3, > 100 µM (inactive). The GI50 in the experiment on HOP-92, with CCRF-CEM, with Malme-3M, with NCI-H460, in the experiment on ACHN and with MDA-MB-435 was > 100 µM (inactive) each time. The GI50 in the experiment on SF-539 and in the experiment on A498 was > 100 µM (inactive) each time.
For the compound `Cl/C(=C\C=N\c1ccc(I)cc1)c1ccc2ccccc2c1`, the GI50 in the experiment with MOLT-4 is 5.13 µM (inactive); in the experiment on SW-620, 19.1 µM (inactive); in the experiment with OVCAR-4, 24.5 µM (inactive); in the experiment with SR, 3.91 µM (inactive); in the experiment with HCC 2998 it was 0.0322 µM (active); with SK-MEL-28, 21.4 µM (inactive). Besides, the GI50 was 13.1 µM (inactive) in the experiment with KM12; 17.5 µM (inactive) in the experiment on UO-31; 16 µM (inactive) in the experiment on NCI-H23; 8.53 µM (inactive) in the experiment on LOX IMVI; 23.2 µM (inactive) in the experiment on MCF7; 15 µM (inactive) with OVCAR-3. Moreover, the GI50 is 41.6 µM (inactive) in the experiment on HOP-92; 7.29 µM (inactive) with CCRF-CEM; 20.6 µM (inactive) with Malme-3M; 24.2 µM (inactive) in the experiment with NCI-H460; 10.5 µM (inactive) in the experiment on ACHN; 9.42 µM (inactive) in the experiment with MDA-MB-435. Moreover, the GI50 with SF-539 is 19.9 µM (inactive); in the experiment on A498, 47.6 µM (inactive).
For the compound `COc1cc2c3c(c1)CCCN3CCC2`, the GI50 in the experiment with MOLT-4, in the experiment on SW-620, in the experiment on OVCAR-4, in the experiment on SR, in the experiment with HCC 2998 and in the experiment with SK-MEL-28 was > 10 µM (inactive) each time. The GI50 in the experiment with KM12, in the experiment with UO-31, with NCI-H23, with LOX IMVI, with MCF7 and in the experiment on OVCAR-3 was > 10 µM (inactive) each time. Further, the GI50 in the experiment with HOP-92, in the experiment with CCRF-CEM, in the experiment on Malme-3M, with NCI-H460, in the experiment with ACHN and in the experiment on MDA-MB-435 was > 10 µM (inactive) each time. In addition, the GI50 with SF-539 and in the experiment with A498 was > 10 µM (inactive) throughout.
As for `Cc1c(C)c(C)n(C2OC(CO)C(O)C(O)C2O)c(=S)c1C#N` (stereo not given), the GI50 with MOLT-4, with SW-620, in the experiment with OVCAR-4, with SR, with HCC 2998 and in the experiment on SK-MEL-28 was > 100 µM (inactive) each time. The GI50 with KM12, with UO-31, with NCI-H23, with LOX IMVI, in the experiment on MCF7 and in the experiment on OVCAR-3 was > 100 µM (inactive) throughout. Further, the GI50 with HOP-92, in the experiment on CCRF-CEM, in the experiment on Malme-3M, in the experiment with NCI-H460, in the experiment on ACHN and in the experiment on MDA-MB-435 was > 100 µM (inactive) each time. The GI50 in the experiment on SF-539 and with A498 was > 100 µM (inactive) throughout.
Turning to `CCCCCNC(=O)OC1CCn2c1nc1c2C(=O)C(C)=C(N2CC2)C1=O` (stereo not given), the GI50 with MOLT-4 is 10.7 µM (inactive); in the experiment on SW-620 it was 0.492 µM (active); with OVCAR-4, 1.3 µM (inactive); in the experiment on SR, 20.7 µM (inactive); with HCC 2998, 0.311 µM (active); in the experiment with SK-MEL-28, 1.41 µM (inactive). In addition, the GI50 with KM12 was 1.64 µM (inactive); with UO-31 it was 1.83 µM (inactive); in the experiment on NCI-H23 it was 1.24 µM (inactive); in the experiment on LOX IMVI it was 0.229 µM (active); with MCF7 it was 0.453 µM (active); in the experiment on OVCAR-3 it was 1.79 µM (inactive). In addition, the GI50 in the experiment on HOP-92 was 21.4 µM (inactive); in the experiment on CCRF-CEM, 26.5 µM (inactive); in the experiment with Malme-3M it was 2.19 µM (inactive); with NCI-H460, 0.218 µM (active); in the experiment on ACHN, 0.548 µM (active); with MDA-MB-435, 1.62 µM (inactive). The GI50 with SF-539 was 2 µM (inactive); in the experiment on A498, 1.75 µM (inactive).
With `C=C1C(=O)OC2C1C(OC(=O)/C(C)=C/C)CC1(C)C(=O)CCC(=C)C21` (stereo not given), the GI50 in the experiment on MOLT-4 was 2.77 µM (inactive); with SW-620 it was 2.93 µM (inactive); with OVCAR-4 it was 11 µM (inactive); with SR it was 2.06 µM (inactive); with HCC 2998, 9.73 µM (inactive); in the experiment with SK-MEL-28 it was 3.47 µM (inactive). Also, the GI50 was 16.4 µM (inactive) in the experiment with KM12; 6.55 µM (inactive) with UO-31; 12.8 µM (inactive) in the experiment with NCI-H23; 3.94 µM (inactive) in the experiment on LOX IMVI; 4.49 µM (inactive) in the experiment on MCF7; 6.92 µM (inactive) in the experiment with OVCAR-3. Further, the GI50 with HOP-92 was 1.62 µM (inactive); in the experiment on CCRF-CEM it was 2.3 µM (inactive); with Malme-3M it was 5.85 µM (inactive); in the experiment with NCI-H460, 13.3 µM (inactive); in the experiment with ACHN, 2.4 µM (inactive); in the experiment with MDA-MB-435, 8.2 µM (inactive). For the same compound, the figures for the GI50 in the experiment with SF-539 and in the experiment with A498 were 11.3 µM (inactive) and 13.8 µM (inactive), respectively.
For `COc1ccc(/N=C\c2ccc(N(CCC#N)CCC#N)cc2)cc1`, the GI50 in the experiment with MOLT-4 is 66.5 µM (inactive); in the experiment with SW-620, 61.1 µM (inactive); in the experiment with OVCAR-4 it was > 86.1 µM (inactive); in the experiment on SR, 90.8 µM (inactive); with HCC 2998, 38.8 µM (inactive); in the experiment with SK-MEL-28, > 81.1 µM (inactive). Besides, the GI50 in the experiment on KM12 is 17.1 µM (inactive); in the experiment on UO-31, 44.5 µM (inactive); in the experiment with NCI-H23, > 100 µM (inactive); in the experiment with LOX IMVI, > 28.9 µM (inactive); with MCF7, > 100 µM (inactive); in the experiment with OVCAR-3 it was 78.3 µM (inactive). In addition, the GI50 was 99.3 µM (inactive) in the experiment on HOP-92; 48.1 µM (inactive) in the experiment with CCRF-CEM; > 84.9 µM (inactive) in the experiment on Malme-3M; 43.1 µM (inactive) with NCI-H460; 26.7 µM (inactive) in the experiment with ACHN; 32.8 µM (inactive) with MDA-MB-435. Besides, the GI50 is 27.9 µM (inactive) with SF-539 and > 100 µM (inactive) with A498.
With `Nc1nc(Cl)nc2c1ncn2C1CCC(COP(=O)(O)OP(=O)(O)OP(=O)(O)O)O1` (stereo not given), the GI50 is 65 µM (inactive) in the experiment on MOLT-4; 32.4 µM (inactive) in the experiment with SW-620; 24.9 µM (inactive) with OVCAR-4; 23.1 µM (inactive) in the experiment with SR; 28.1 µM (inactive) in the experiment with HCC 2998; 20.4 µM (inactive) in the experiment with SK-MEL-28. In addition, the GI50 with KM12 is 32.4 µM (inactive); in the experiment on UO-31 it was 12.7 µM (inactive); in the experiment on NCI-H23, 19.9 µM (inactive); with LOX IMVI, 28.3 µM (inactive); with MCF7, 29.4 µM (inactive); with OVCAR-3, 50.2 µM (inactive). In addition, the GI50 in the experiment on HOP-92 is 23.7 µM (inactive); with CCRF-CEM it was 44.3 µM (inactive); in the experiment on Malme-3M, > 100 µM (inactive); in the experiment on NCI-H460 it was 41.6 µM (inactive); with ACHN it was 25.2 µM (inactive); in the experiment with MDA-MB-435 it was 23 µM (inactive). For the same compound, the values for the GI50 with SF-539 and with A498 were 67.3 µM (inactive) and 26.1 µM (inactive), respectively.
In the case of `CCOC(=O)c1cn2c(n1)sc1c(Cl)c(Cl)ccc12`, the GI50 with MOLT-4 is 8.71 µM (inactive); in the experiment on SW-620, 5.13 µM (inactive); in the experiment on OVCAR-4, 46.6 µM (inactive); in the experiment on SR, 2.55 µM (inactive); in the experiment with HCC 2998 it was 30.7 µM (inactive); in the experiment with SK-MEL-28 it was 20.8 µM (inactive). Moreover, the GI50 with KM12 is 5.36 µM (inactive); with UO-31 it was 13.4 µM (inactive); in the experiment with NCI-H23, 29.4 µM (inactive); with LOX IMVI it was 13.2 µM (inactive); in the experiment on MCF7, 11.1 µM (inactive); in the experiment with OVCAR-3 it was 11.1 µM (inactive). The GI50 with HOP-92 is 24.5 µM (inactive); in the experiment on CCRF-CEM it was 4.97 µM (inactive); with Malme-3M it was 1.96 µM (inactive); in the experiment with NCI-H460, > 60.1 µM (inactive); with ACHN, 15.3 µM (inactive); in the experiment with MDA-MB-435, 3.31 µM (inactive). Also, the GI50 was 6.76 µM (inactive) in the experiment on SF-539 and 20.6 µM (inactive) with A498.
Take `COC1=CC(=O)c2c(O)c3c(c(O)c2C1=O)C[C@](C)(O)C[C@@H]3O`: the GI50 in the experiment on MOLT-4 is 7.8 µM (inactive); in the experiment with SW-620, 3.92 µM (inactive); in the experiment on OVCAR-4, 3.72 µM (inactive); in the experiment with SR, 2.92 µM (inactive); in the experiment with HCC 2998, 3.67 µM (inactive); in the experiment with SK-MEL-28, 7.05 µM (inactive). Also, the GI50 was 4.13 µM (inactive) in the experiment with KM12; 11.4 µM (inactive) with UO-31; 2.43 µM (inactive) in the experiment on NCI-H23; 2.54 µM (inactive) with LOX IMVI; 4.89 µM (inactive) in the experiment on MCF7; 0.861 µM (active) in the experiment with OVCAR-3. Besides, the GI50 with HOP-92 was 9.48 µM (inactive); with CCRF-CEM, 5.7 µM (inactive); in the experiment on Malme-3M, 1.03 µM (active); in the experiment on NCI-H460, 1.65 µM (inactive); in the experiment with ACHN it was 5.15 µM (inactive); in the experiment with MDA-MB-435 it was 1.88 µM (inactive). For the same compound, the figures for the GI50 in the experiment with SF-539 and with A498 were 3.08 µM (inactive) and 7.66 µM (inactive), respectively.
